# Several values for one entry are separate records, joined by “and”; a condition that tells them apart may be missing. Equal entries are not always repeated. Where two headings read alike, the source gives them in different places.
# Legend:
# [1] = test system: Acinetobacter baylyi ΔlpxM; assay: MIC by broth microdilution, A. baylyi ΔlpxM; assay type: cell-based
# Description: (§1) Culture, genetic manipulation and MIC measurements of A. baylyi ADP1 were conducted according to previously reported procedures[46],[51]. Point mutants were constructed in a two-step procedure following ref. [52] with the introduction and excision of the integration cassette at codon 66 of pepA, wherein the excising fragment of otherwise wild-type chromosomal DNA sequence from codon 406 of pepA to codon 193 of lptG bore the desired mutation and the resulting clones were screened by amplicon sequencing from codon 81 of HolC to codon 501 of GpmI, whereas lpxM deletion was achieved following the same procedure except that the integration cassette insertion and excision removed codons 79–279 of lpxM to avoid interference with neighbouring and overlapping genes that a larger deletion may risk and replaced codon 78 with an ochre stop codon to prevent a readthrough resulting in an aberrant fusion, with the excising fragment sequence spanning from codon 211 of sppA to codon 497 of ComA and verified by amplicon sequencing from codon 94 of MhpC to codon 327 of ComA as well as by absence of a PCR product corresponding to a region spanning codons 79 to 279 of lpxM to check for duplications. A deletion of the lon protease was made in the same manner to produce the stain used for expression and purification of LptB2FG to mimic the BL21 strain of E. coli used in the rest of purifications, for which the region encompassing 72 base pairs (bp) upstream of the lon start codon and 1 bp downstream of the lon stop codon was excised after being replaced with the same integration cassette, yielding a markerless deletion, with the excising fragment sequence spanning from codon 491 of ArnT to codon 40 of 45_DOPA_Dioxygenase and verified by amplicon sequencing spanning from codon 322 of ArnT to codon 221 of 45_DOPA_Dioxygenase as well as by absence of a PCR product corresponding to a region spanning from codons 328 to 768 of lon to check for duplications. Following amplicon confirmation, three validated isolates of each constructed mutant were tested for susceptibility to a panel of antibiotics with […] known mechanisms of action as a further validation step to ensure congruence of phenotypes across replicates, which was confirmed in all cases and one of the validated replicates was later used for MIC measurements reported here.
# (§2) MIC determinations were performed by broth microdilution in line with CLSI guidelines (CLSI M07-A11 2018). Bacterial inocula were prepared by diluting overnight liquid cultures in LB. Antibacterial panels containing antibacterial solutions were inoculated with an appropriate volume of inoculum to give a final inoculum of about 5 × 10^5 c.f.u. ml^−1 and desired test concentrations of antibacterial agents in standard 96-well plates with 0.1 ml of culture per well. The test plates were incubated for 20–24 h and optical density (OD600) was recorded using a plate reader. MIC values corresponded to the lowest compound concentration inhibiting bacterial growth beyond which OD ceased to decrease.
# [2] = test system: Acinetobacter baylyi ADP1 wild type; assay: microbe, parasite or virus in culture; assay type: cell-based; settings: A. baylyi wild type
# Description: as §1, §2
# [3] = biological target: His-tagged LptB2FG (ablLptB2FG) (Acinetobacter baylyi, UniProt Q6FFD6+Q6FFD7); assay: Radioligand binding SPA, LptB2FG
# Sequence of His-tagged LptB2FG (ablLptB2FG) (Q6FFD7 1-366): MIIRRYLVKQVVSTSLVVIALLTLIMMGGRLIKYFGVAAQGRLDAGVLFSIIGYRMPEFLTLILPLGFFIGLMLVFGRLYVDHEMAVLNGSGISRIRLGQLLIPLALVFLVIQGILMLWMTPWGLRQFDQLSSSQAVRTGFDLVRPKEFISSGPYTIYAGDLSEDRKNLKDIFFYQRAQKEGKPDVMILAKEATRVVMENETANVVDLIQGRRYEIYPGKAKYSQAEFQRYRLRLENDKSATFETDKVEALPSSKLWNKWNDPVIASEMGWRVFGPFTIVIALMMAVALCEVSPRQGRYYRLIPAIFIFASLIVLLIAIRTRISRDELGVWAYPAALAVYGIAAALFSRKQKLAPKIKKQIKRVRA
# Sequence of His-tagged LptB2FG (ablLptB2FG) (Q6FFD6 1-356): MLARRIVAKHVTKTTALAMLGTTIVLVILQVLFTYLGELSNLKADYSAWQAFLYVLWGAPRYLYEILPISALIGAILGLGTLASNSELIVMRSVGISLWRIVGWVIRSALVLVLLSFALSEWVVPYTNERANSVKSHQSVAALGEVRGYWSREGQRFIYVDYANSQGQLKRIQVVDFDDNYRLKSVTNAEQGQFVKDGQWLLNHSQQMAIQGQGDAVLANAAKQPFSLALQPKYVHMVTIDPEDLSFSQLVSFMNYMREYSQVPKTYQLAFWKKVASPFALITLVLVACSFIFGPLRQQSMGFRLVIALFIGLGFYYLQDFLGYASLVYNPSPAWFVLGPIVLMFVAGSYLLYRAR
# Sequence of His-tagged LptB2FG (ablLptB2FG) (Q6FC66 1-249 partner): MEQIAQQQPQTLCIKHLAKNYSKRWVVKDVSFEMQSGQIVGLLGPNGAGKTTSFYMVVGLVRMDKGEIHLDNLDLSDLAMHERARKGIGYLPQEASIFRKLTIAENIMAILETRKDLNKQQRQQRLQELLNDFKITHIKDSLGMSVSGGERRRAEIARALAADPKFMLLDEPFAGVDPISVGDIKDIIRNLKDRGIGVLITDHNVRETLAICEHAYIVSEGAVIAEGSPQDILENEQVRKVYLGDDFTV
# Description: The binding of radioligand [^3H]-RO7223280 to ablLptB2FG and ablLptB2FGC was measured by bead-based SPA. All steps were performed in SEC buffer (20 mM Tris pH 7.5, 300 mM NaCl, 5% glycerol, 0.5 mM TCEP, 0.05% DDM ± 10 µM E.coli J5 LPS(Rc) [sequence] (Enzo Life Sciences)) and at 4 °C unless otherwise indicated. Purified protein was first incubated with Copper PVT HIS-tag beads (Perkin Elmer) for 1.5 h under gentle rotation. Twelve radioligand concentrations were added to the PVT–protein mix and incubated for another 30 min. […] The SPA plates were sealed (TopSeal, Perkin Elmer) and stored at 4 °C overnight. Before the measurement, plates were mixed on a shaker for 20 min, 750 rpm at room temperature and the seal was thoroughly wiped with antistatic spray to reduce electrostatic events. Scintillation data were recorded with a Topcount NXT C384, in the form of three independent replicates each consisting of three technical triplicates. Specific binding was calculated by subtracting non-specific binding raw counts from total binding raw counts. The dissociation constant Kd and standard deviation of the three independent replicates are reported and were calculated by the GraphPad Prism ‘One site – specific binding’ tool.
# [4] = test system: His-tagged LptB2FGC (ablLptB2FGC); settings: SPA
# Description: The binding of radioligand [^3H]-RO7223280 to ablLptB2FG and ablLptB2FGC was measured by bead-based SPA. All steps were performed in SEC buffer (20 mM Tris pH 7.5, 300 mM NaCl, 5% glycerol, 0.5 mM TCEP, 0.05% DDM ± 10 µM E.coli J5 LPS(Rc) […] (Enzo Life Sciences)) and at 4 °C unless otherwise indicated. Purified protein was first incubated with Copper PVT HIS-tag beads (Perkin Elmer) for 1.5 h under gentle rotation. Twelve radioligand concentrations were added to the PVT–protein mix and incubated for another 30 min. […] The SPA plates were sealed (TopSeal, Perkin Elmer) and stored at 4 °C overnight. Before the measurement, plates were mixed on a shaker for 20 min, 750 rpm at room temperature and the seal was thoroughly wiped with antistatic spray to reduce electrostatic events. Scintillation data were recorded with a Topcount NXT C384, in the form of three independent replicates each consisting of three technical triplicates. Specific binding was calculated by subtracting non-specific binding raw counts from total binding raw counts. The dissociation constant Kd and standard deviation of the three independent replicates are reported and were calculated by the GraphPad Prism ‘One site – specific binding’ tool.
# [5] = Acinetobacter baylyi, ADP1WILDTYPE, read-out: MIC
Molecule,MIC ([1]; Acinetobacter baylyi),"MIC [2, 5]",also measured
CO[C@H]1/C=C/O[C@@]2(C)Oc3c(C)c(O)c4c(O)c(c(/C=N/N5CCN(C)CC5)c(O)c4c3C2=O)NC(=O)/C(C)=C\C=C\[C@H](C)[C@H](O)[C@@H](C)[C@@H](O)[C@@H](C)[C@H](OC(C)=O)[C@@H]1C [Rifampicin],0.6 µM and 0.5 µg/mL,1.6 µM and 1.3 µg/mL,
CO[C@H]1[C@H](OC(=O)c2ccc(C)[nH]2)[C@H](O)[C@@H](Oc2ccc3c(O)c(NC(=O)c4c[nH]c(C(=O)Nc5c(O)c6ccc(O[C@H]7OC(C)(C)[C@@H](OC)[C@H](OC(=O)c8ccc(C)[nH]8)[C@@H]7O)c(C)c6oc5=O)c4C)c(=O)oc3c2C)OC1(C)C [Coumermycin A1],0.16 µM and 0.18 µg/mL,5 µM and 6 µg/mL,
CO[C@@H]1[C@@H](OC(N)=O)[C@@H](O)[C@H](Oc2ccc3c(O)c(NC(=O)c4ccc(O)c(CC=C(C)C)c4)c(=O)oc3c2C)OC1(C)C [Novobiocin],0.6 µM and 0.4 µg/mL,4 µM and 2 µg/mL,
CN[C@H](CC(C)C)C(=O)N[C@H]1C(=O)N[C@@H](CC(N)=O)C(=O)N[C@H]2C(=O)N[C@H]3C(=O)N[C@H](C(=O)N[C@H](C(=O)O)c4cc(O)cc(O)c4-c4cc3ccc4O)[C@H](O)c3ccc(c(Cl)c3)Oc3cc2cc(c3O[C@@H]2O[C@H](CO)[C@@H](O)[C@H](O)[C@H]2O[C@H]2C[C@](C)(N)[C@H](O)[C@H](C)O2)Oc2ccc(cc2Cl)[C@H]1O [Vancomycin],17 µM and 25 µg/mL,500 µM and 700 µg/mL,
Bacitracin,,,MIC ([1]; A. baylyi ΔlpxM): 20 µM and 30 µg/mL; MIC [2]: 700 µg/mL; MIC ([2]; read-out: MIC): 500 µM
CN1C(=O)[C@H](CCCCN)NC(=O)[C@H](CCCN)NCc2cccnc2Sc2cccc(-c3ccc(C(=O)O)cc3)c2CNC(=O)[C@@H]1Cc1c[nH]c2ccccc12 [[^3H]-RO7223280],,,Binding of radiolabelled 2 to LptB2FG ([3]; binding dependent on presence of LPS): bound to LptB2FG; Kd ([3]; used as constraint for Ki fit): 86 nM; Binding of radiolabelled 2 to LptB2FGC [4]: not LptB2FGC
Oc1cc(Cl)ccc1Oc1ccc(Cl)cc1Cl [Triclosan],0.03 µM and 0.009 µg/mL,0.126 µM and 0.036 µg/mL,
